Experimental findings from patent publication US20100331315A1, “RHODANINES AND RELATED HETEROCYCLES AS KINASE INHIBITORS” (priority 2009, published 2010) are described below.

The target of test [1] is T1, recombinant human CK2 (Homo sapiens, UniProt P68400).
T1 construct: purchased Upstate
Description: CK2 assay (cell-free, 33P-ATP filter plate). Type of test: biochemical. As to the method:
Modulatory activity of compounds described herein was assessed in vitro in cell-free CK2 assays by the following method.
Test compounds in aqueous solution were added at a volume of 10 microliters, to a reaction mixture comprising 10 microliters Assay Dilution Buffer (ADB; 20 mM MOPS, pH 7.2, 25 mM beta-glycerolphosphate, 5 mM EGTA, 1 mM sodium orthovanadate and 1 mM dithiothreitol), 10 microliters of substrate peptide (RRRDDDSDDD, dissolved in ADB at a concentration of 1 mM), 10 microliters of recombinant human CK2 (25 ng dissolved in ADB; Upstate). Reactions were initiated by the addition of 10 microliters of ATP Solution (90% 75 mM MgCl2, 75 micromolar ATP dissolved in ADB; 10% [γ-^33P]ATP (stock 1 mCi/100 μl; 3000 Ci/mmol (Perkin Elmer) and maintained for 10 minutes at 30 degrees C. The reactions were quenched with 100 microliters of 0.75% phosphoric acid, then transferred to and filtered through a phosphocellulose filter plate (Millipore). After washing each well 5 times with 0.75% phosphoric acid, the plate was dried under vacuum for 5 min and, following the addition of 15 ul of scintillation fluid to each well, the residual radioactivity was measured using a Wallac luminescence counter.

The target in test [2] is recombinant human PIM2 (Homo sapiens, UniProt Q9P1W9). In words: PIM-2 assay (33P-ATP filter plate). Conditions: for IC50: Table 5; for inhibition at 2.5 µM: Table 6, read-out: PIM2: % inh @ 2.5 uM. The test is classed as biochemical. The protocol:
PIM-2 Assay Method: Test compounds dissolved and diluted in DMSO (2 μl) were added to a reaction mixture comprising 10 μl of 5× Reaction Buffer (40 mM MOPS pH 7.0, 5 mM EDTA), 10 μl of recombinant human PIM2 solution (4 ng PIM-2 dissolved in dilution buffer (20 mM MOPS pH 7.0; EDTA 1 mM; 5% Glycerol; 0.01% Brij 35; […]; […] 2-mercaptoethanol; 1 mg/ml BSA)) and 8 ul of water. Reactions were initiated by the addition of 10 ul of ATP Solution (49% (15 mM MgCl2; 75 uM ATP) 1% ([γ-^33P]ATP: Stock 1 mCi/1000; 3000Ci/mmol (Perkin Elmer)) and 10 ul of substrate peptide solution (RSRSSYPAGT, dissolved in water at a concentration of 1 mM), Reactions were maintained for 10 min at 30° C. The reactions were quenched with 100 ul of 0.75% Phosphoric acid, then transferred to and filtered through a Phosphocellulose filter plate (Millipore, MSPH-N6B-50). After washing each well 4 times with 0.75% Phosphoric acid, scintillation fluid (20 uL) was added to each well and the residual radioactivity was measured using a Wallac luminescence counter.

Test [3] has as its system K-562. In words: Alamar Blue cell proliferation assay, K-562. Type of test: cell-based. As to conditions: Homo sapiens, K562, K-562, Table 5, read-out: AB: K-562 IC50. As to the method: (§1) A representative cell-proliferation assay protocol using Alamar Blue dye (stored at 4° C., use 20 ul per well) is described hereafter.
(§2) a. Split and trypsinize cells.
(§3) b. Count cells using hemocytometer.
(§4) c. Plate 4,000-5,000 cells per well in 100 μl of medium and seed into a 96-well plate according to the following plate layout. Add cell culture medium only to wells B10 to B12. Wells B1 to B9 have cells but no compound added.
(§5) d. Add 100 μl of 2× drug dilution to each well in a concentration shown in the plate layout above. At the same time, add 100 μl of media into the control wells (wells B10 to B12). Total volume is 200 μl/well.
(§6) e. Incubate four (4) days at 37° C., 5% CO2 in a humidified incubator.
(§7) f. Add 20 μl Alamar Blue reagent to each well.
(§8) g. Incubate for four (4) hours at 37° C., 5% CO2 in a humidified incubator.
(§9) h. Record fluorescence at an excitation wavelength of 544 nm and emission wavelength of 590 nm using a microplate reader.
(§10) In the assays, cells are cultured with a test compound for approximately four days, the dye is then added to the cells and fluorescence of […] dye is detected after approximately four hours. Different types of cells can be utilized in the assays (e.g., HCT-116 human colorectal carcinoma cells, PC-3 human prostatic cancer cells and MiaPaca human pancreatic carcinoma cells).
For orientation: Alamar Blue is a resazurin reagent that responds to reducing activity.

The test system of test [4] is MV-4-11. In words: Alamar Blue cell proliferation assay, MV-4-11. The test is classed as cell-based. Conditions: Homo sapiens, MV4-11, MV-4-11, Table 5, read-out: AB: MV-4-11 IC50. As to the method:
as §1, §2, §3, §4, §5, §6, §7, §8, §9, §10

Test [5] concerns BxPC3. Description: Alamar Blue cell proliferation assay, BxPC3. The test is classed as cell-based. Conditions: Homo sapiens. The protocol: as §1, §2, §3, §4, §5, §6, §7, §8, §9, §10
Test [6] deals with MDAMB453. In words: Alamar Blue cell proliferation assay, MDAMB453. Type of test: cell-based. As to conditions: Homo sapiens. As to the method: as §1, §2, §3, §4, §5, §6, §7, §8, §9, §10
In test [7] the test system is SUM-149PT. Description: Alamar Blue cell proliferation assay, SUM-149PT. The test is classed as cell-based. As to conditions: Homo sapiens, SUM149PT. As to the method:
as §1, §2, §3, §4, §5, §6, §7, §8, §9, §10

[8] abbreviates: BXPC-3, BxPC3, Table 5, read-out: AB: BxPC3 IC50.
Setting [9] is: MDA-MB-453, MDAMB453, Table 5, read-out: AB: MDAMB453 IC50.
[10] abbreviates: Table 5, read-out: AB: SUM-149PT IC50.
Where [11] appears, read: BXPC-3, BxPC3, Table 6, read-out: AB: BxPC3 IC50.
[12] abbreviates: MDA-MB-453, MDAMB453, Table 6, read-out: AB: MDAMB453 IC50.
Setting [13] is: Table 6, read-out: AB: SUM-149PT IC50.

Read-outs that look alike come from different tables or passages of the source. Some results are limits rather than exact numbers.

T1 sequence (P68400 whole entry): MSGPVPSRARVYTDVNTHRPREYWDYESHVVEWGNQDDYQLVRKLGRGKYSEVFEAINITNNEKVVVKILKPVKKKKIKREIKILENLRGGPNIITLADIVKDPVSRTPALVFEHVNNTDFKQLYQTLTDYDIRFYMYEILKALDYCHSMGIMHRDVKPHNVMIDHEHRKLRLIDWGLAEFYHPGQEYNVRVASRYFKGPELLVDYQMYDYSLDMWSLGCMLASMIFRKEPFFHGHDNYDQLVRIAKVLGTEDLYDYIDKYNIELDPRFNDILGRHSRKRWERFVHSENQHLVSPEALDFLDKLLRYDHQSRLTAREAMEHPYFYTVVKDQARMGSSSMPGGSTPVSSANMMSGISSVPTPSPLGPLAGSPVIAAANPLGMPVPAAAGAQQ
T1 sequence (P67870 whole entry partner): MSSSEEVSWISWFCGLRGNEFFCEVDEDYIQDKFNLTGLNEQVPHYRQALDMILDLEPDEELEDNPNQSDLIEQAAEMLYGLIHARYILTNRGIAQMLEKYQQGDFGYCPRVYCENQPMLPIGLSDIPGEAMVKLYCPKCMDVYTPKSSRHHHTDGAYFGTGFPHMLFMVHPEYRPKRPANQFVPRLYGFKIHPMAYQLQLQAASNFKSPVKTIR
Sequence of recombinant human PIM2 (Q9P1W9 whole entry): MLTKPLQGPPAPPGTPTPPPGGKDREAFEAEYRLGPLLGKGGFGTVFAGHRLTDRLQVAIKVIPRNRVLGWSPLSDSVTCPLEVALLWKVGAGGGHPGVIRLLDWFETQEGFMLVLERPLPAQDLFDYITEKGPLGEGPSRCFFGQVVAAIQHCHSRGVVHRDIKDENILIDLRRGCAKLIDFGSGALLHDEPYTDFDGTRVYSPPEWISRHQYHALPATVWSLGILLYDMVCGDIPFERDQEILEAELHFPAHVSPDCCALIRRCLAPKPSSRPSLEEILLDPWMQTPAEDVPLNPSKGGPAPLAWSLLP

The term IC50 denotes the concentration needed to halve the response being measured. As to `O=C1NC(=O)/C(=C\c2ccc(F)c(-c3cncc(N4CCCN(C(=O)C5CC5)CC4)n3)c2)S1`, the IC50 in test [1] (Table 5) was less than 0.05 µM; in test [2], less than 0.05 µM; in test [3] it was 0.321 µM; in test [4] it was 2.78 µM; in test [5] (setting [8]), 23.1 µM; in test [6] (setting [9]), 4.09 µM. Further, the IC50 in test [7] (setting [10]) is 3.94 µM.
Take `CCOC(=O)N1CCCN(c2cncc(-c3cc(/C=C4/SC(=O)NC4=O)ccc3F)n2)CC1`: the IC50 in test [1] (Table 5) was less than 0.05 µM; in test [2], less than 0.05 µM; in test [3], 3.58 µM; in test [4], 3.88 µM; in test [5] (setting [8]), 22.7 µM; in test [6] (setting [9]), 10.9 µM. In test [7] (setting [10]), the IC50 was found to be 4.18 µM.
Consider `CC(C)(C)C(=O)N1CCCN(c2cncc(-c3cc(/C=C4/SC(=O)NC4=O)ccc3F)n2)CC1`, for which the IC50 is less than 0.05 µM in test [1] (Table 5); less than 0.05 µM in test [2]; 0.316 µM in test [3]; 0.374 µM in test [4]; 12.7 µM in test [5] (setting [8]); 0.318 µM in test [6] (setting [9]). Also, in test [7] (setting [10]), the IC50 came to 1.02 µM.
On to `COc1cc(OC)cc(C(=O)N2CCCN(c3cncc(-c4cc(/C=C5/SC(=O)NC5=O)ccc4F)n3)CC2)c1`, for which the IC50 in test [1] (Table 5) was determined as 0.181 µM; in test [2], 0.175 µM.
Consider `CC(C)NC(=O)N1CCCN(c2cncc(-c3cc(/C=C4/SC(=O)NC4=O)ccc3F)n2)CC1`, for which the IC50 in test [1] (Table 5) was less than 0.05 µM; in test [2] it was less than 0.05 µM; in test [4] it was 7.7 µM; in test [6] (setting [9]), 6.28 µM; in test [7] (setting [10]) it was 1.56 µM.
Turning to `COc1ccc(/C=C2\SC(=O)NC2=O)cc1-c1cncc(N2CCCNCC2)n1`, in test [1] (Table 6), the IC50 came out at 0.472 µM. The inhibition at 2.5 µM in test [2] came out at 98.5%.
`O=C1NC(=O)/C(=C/c2cc(-c3cncc(N4CCCNCC4)n3)cs2)S1`: the IC50 was 0.00439 µM in test [1] (Table 6), greater than 30 µM in test [5] (setting [11]), 27.7 µM in test [6] (setting [12]) and 25.2 µM in test [7] (setting [13]). The inhibition at 2.5 µM in test [2] was 99.9%.
The corresponding values for `C[C@H](Nc1cncc(-c2csc(/C=C3\SC(=O)NC3=O)c2)n1)C1CC1` are 0.024 µM, 16.7 µM, 19.2 µM, 8.72 µM and 99.4%.
In the case of `C[C@H](Nc1cncc(-c2cccc(/C=C3\SC(=O)NC3=O)c2)n1)C1CC1`, the IC50 in test [1] (Table 6) was 0.00144 µM; in test [5] (setting [11]) it was 17.2 µM; in test [6] (setting [12]), 7.21 µM; in test [7] (setting [13]), 0.703 µM. Besides, in test [2], the inhibition at 2.5 µM stood at 99.9%.
